{
  "source": "patent US9549977B2",
  "about": "(priority 2011, dated 2017)",
  "key": {"[1]": {"test_system": "Ichthyophthirius multifiliis", "experiment": "Survival of channel catfish immunized and challenged with live theronts of I. multifiliis", "type": "in vivo, channel catfish (Ictalurus punctatus)", "conditions": "PACAP immersion baths 100 μg/L, 6 baths of 1 hour, versus immunized fish", "experimental": "An experiment was conducted to evaluate the effect of PACAP administration, after immunization with ciliated parasite theronts I. multifiliis, on survival of channel catfish (I. punctatus). The vaccination and challenge procedure was performed as proposed by Wang and Dickerson ((2002) Clinical and Diagnostic Laboratory Immunology 9 (1), 176-181). Four experimental groups of 25 fish (12±5 g) each one were established:\nGroup 1: Fish immunized on days 1 and 35 with PBS.\nGroup 2: Fish immunized on day 1 with 8000 live theronts I. multifiliis and at day 35 with 10,000 living theronts parasite.\nGroup 3: Fish immunized on day 1 with 8000 live theronts I. multifiliis and at day 35 with 10,000 living theronts parasite. These fish also received by immersion baths the neuropeptide PACAP at a dose of 100 μg of PACAP/L of water. The treatment was performed for 1 hour, on alternate days, in the two weeks prior to challenge (six immersion baths).\nGroup 4: Fish immunized on day 1 with 8000 live theronts I. multifiliis and at day 35 with 10,000 living theronts parasite. These fish were also subjected to immersion baths for 1 hour without PACA, by a procedure similar to Group 3.\nPrior to the immunizations fish were treated with formalin to remove existing ectoparasites. The fish were maintained at 23±2° C. and continuous water flow. At day 84, the fish were challenged with 15 000 theronts. […]"}, "Caligus rogercresseyi": {"test_system": "Caligus rogercresseyi", "experiment": "Controlled challenge test with Caligus rogercresseyi in immunized Salmo salar", "description": "In this experiment were established six experimental groups of 25 animals (average weight 80 g) each one:\nGroup 1: Injected IP with PBS\nGroup 2: Injected IP with PACAP38 at the dose of 1 μg/fish\nGroup 3: Injected IP with my32 at the dose of 3 μg/g of body weight (gbw)\nGroup 4: Co-administration by IP injection of my32 at 3 μg/gbw and PACAP at the dose of 1 μg/fish\nGroup 5: Fish injected IP with my32 at the dose of 3 μg/gbw and fed with 250 μg of PACAP/Kg of feed daily, for one week before and after de immunization with my32.\nAfter 500 arbitrary thermal units, fish were adapted to seawater for two weeks. Subsequently, they were challenged with 2000±200 copepodites to each tank. […] Turnover and filtration was performed manually every 48 hours. At 24 days, fish were anesthetized and killed for parasite counting under a stereomicroscope."}, "IL 1β [2]": {"test_system": "IL 1β", "experiment": "IL 1β transcription in peripheral blood leukocytes, real time PCR", "type": "cell-based, rainbow trout (Oncorhynchus mykiss)", "experimental": "(§1) FIG. 4. Expression analysis by real time PCR of the in vitro effect of PACAP38 over the transcription of IL 1β in peripheral blood leukocytes (A) and head kidney (B) of naïve rainbow trout. The effects of PACAP administration at a concentration of 10^−10 M, 10^−9 M and 10^−8 M was evaluated at 48 h post-treatment. The experiment was repeated 4 times. The leukocyte cultures were treated in duplicates and the PCRs were performed in triplicate. Data are expressed as mean of relative expression of IL 1β related to the endogenous elongation factor EF1α±standard deviation (SD).\n(§2) We used juvenile rainbow trout (O. mykiss) of approximately 50 g, free of the VHSV and IPNV. Fish (n=5) were anesthetized with methanesulfonic acid salt (Sigma, USA) and peripheral blood from the tail vein was taken aseptically of each fish and then the head kidney was collected. […]\n(§3) The levels of IL 1β and IL 15 were evaluated 48 hours after treatment. […]\n(§4) For cDNA synthesis was used a commercial kit that use the SuperScript III reverse transcriptase (Invitrogen). Finally, for quantitative PCRs (qPCRs) was used a commercial mixture of PCR: Power SYBR Green PCR Master Mix (Applied Biosystems). […] The results were expressed as 2^−ΔCt, where ΔCt is equal to the remainder of the Ct value of the target gene minus the Ct value of the normalized gene EF 1α."}, "IL 15 [3]": {"test_system": "IL 15", "experiment": "IL 15 expression in peripheral blood leukocytes, real time PCR", "type": "cell-based, rainbow trout (Oncorhynchus mykiss)", "experimental": "(§5) FIG. 5. Expression analysis by real time PCR of the in vitro effect of PACAP38 over the transcription of IL 15 in peripheral blood leukocytes (A) and head kidney (B) of neïve rainbow trout. The effects of PACAP administration at a concentration of 10^−10 M, 10^−9 M and 10^−8 M was evaluated at 48 h post-treatment. The experiment was repeated 4 times. The leukocyte cultures were treated in duplicates and the PCRs were performed in triplicates. Data are expressed as the mean of the relative expression of IL 15 related to the endogenous elongation factor EF1α±standard deviation (SD). (*) p<0.05.\nas §2, §3, §4"}, "IL 15 [4]": {"test_system": "IL 15", "experiment": "IL 15 expression in head kidney leukocytes, real time PCR", "type": "cell-based, rainbow trout (Oncorhynchus mykiss)", "conditions": "10^−9 M, 48 h, vs negative control", "experimental": "as §5, §2, §3, §4"}, "IL 1β [5]": {"test_system": "IL 1β", "experiment": "IL 1β transcription in head kidney leukocytes, real time PCR", "type": "cell-based, rainbow trout (Oncorhynchus mykiss)", "conditions": "10^−10, 10^−9, 10^−8 M tested, 48 h", "experimental": "as §1, §2, §3, §4"}},
  "note": "Marks after values point to notes of the source that are not given here.",
  "data": [
    {"substance": "PACAP38", "values": [
      {"measurement": "increase in survival of immunized fish simultaneously treated with PACAP", "setting": "[1]", "result": 27, "unit": "%"},
      {"measurement": "Inhibition of the infestation (%)", "setting": "Caligus rogercresseyi; 24 days post-challenge, (1 − T/C) × 100 versus placebo group", "result": 22, "unit": "%"},
      {"measurement": "Number of parasites/fish", "setting": "Caligus rogercresseyi; S. salar, 24 days post-challenge with C. rogercresseyi, PACAP 1 μg/fish IP or 250 μg/Kg feed, my32 3 μg/gbw IP", "result": "29 ± 5^b"},
      {"measurement": "transcription of IL 1β (relative expression to EF1α)", "setting": "IL 1β [2]; 10^−9 M, 48 h, vs negative control, below the 10^−10 M level", "result": "stimulatory effect"},
      {"measurement": "IL 1β levels (relative expression to EF1α)", "setting": "IL 1β [2]; 10^−10 M, 48 hours", "result": "increased"},
      {"measurement": "expression of the IL 15 (relative to EF1α)", "setting": "IL 15 [3]; 10^−9 M, 48 h", "result": "stimulatory effect"},
      {"measurement": "expression of the IL 15 (relative to EF1α)", "setting": "IL 15 [3]; 10^−10 M, 48 h (highest values)", "result": "stimulatory effect"},
      {"measurement": "IL 15 expression levels (relative to EF1α)", "setting": "IL 15 [4]", "result": "statistically higher than the negative control group"},
      {"measurement": "IL1β transcription (relative expression to EF1α)", "setting": "IL 1β [5]", "result": "stimulatory effect only at a dose of 10^−9 M"}
    ]}
  ]
}
